What was measured:
[1] = biological target: T1, RORγ-LBD (Homo sapiens, UniProt P51449); experiment: RORγ-Ligand Binding Domain (LBD) TR-FRET Assay; format: biochemical; settings: for TR-FRET Assay Max Response: maximum response;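 for TR-FRET Assay Max Response: 665/615 nm signal ratio set to 100 without ursolic acid or test compound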
T1 construct: made in house; host or cells: SF9 cells (baculovirus); used as diluted lysate
T1 sequence (P51449 269-508 limits assumed): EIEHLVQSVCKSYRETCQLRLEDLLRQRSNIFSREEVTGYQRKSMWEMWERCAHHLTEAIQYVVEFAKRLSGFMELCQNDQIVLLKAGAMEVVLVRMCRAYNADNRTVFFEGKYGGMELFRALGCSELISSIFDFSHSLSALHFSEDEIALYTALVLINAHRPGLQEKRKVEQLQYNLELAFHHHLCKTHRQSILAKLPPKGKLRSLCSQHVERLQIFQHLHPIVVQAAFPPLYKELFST
Summary of the method: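 Compounds, diluted in DMSO and then in assay buffer (1% DMSO final), were combined with His-tagged RORγ-LBD lysate at roughly 3 nM final and a 200 nM biotinylated SRC1 LXXLL peptide. Ursolic acid was included at 2 μM final. Coactivator recruitment was detected by TR-FRET.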

[2] = biological target: T2, Gal4-RORγ-LBD (Homo sapiens, UniProt P51449); experiment: Gal4-RORγ Luciferase Reporter Assay in HEK-293T Cells; format: cell-based; settings: HEK-293 cells; for Gal4-RORγ Assay Max Response: maximum response
T2 construct: expressed in transfected cells
T2 sequence (P51449 269-508 limits assumed): T1 sequence (P51449 269-508 limits assumed)
Summary of the method: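 Max Response was taken as the upper plateau of a 4-parameter logistic fit of luciferase signal, normalized to 100 for wells without ursolic acid or compound. Transiently Gal4-RORγ-LBD/Gal4-luc transfected HEK-293 cells carrying […] ursolic acid were incubated with test compounds (0.2% DMSO) overnight at 37 °C and read with One-Glo.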

[3] = luciferase reporter, with ursolic acid
[4] = with 2 μM ursolic acid (RORγ antagonist), highest test concentration 10 μM
[5] = ursolic acid present, luciferase readout
[6] = luciferase reporter, in presence of ursolic acid

| Structure (SMILES) | EC50 ([1]; RORγ-LBD TR-FRET) [nM] | EC50 [2, 3] [nM] | further results |
| --- | --- | --- | --- |
| CCOc1nn(CC)cc1S(=O)(=O)N1C[C@H](CCC(=O)O)Oc2ccc(/C=C/c3ncccc3F)cc21 [Example 89W, (S,E)-3-(4-((3-ethoxy-1-ethyl-1H-pyrazol-4-yl)sulfonyl)-6-(2-(3-fluoropyridin-2-yl)vinyl)-3,4-dihydro-2H-benzo[b][1,4]-oxazin-2-yl)propanoic acid] | 5000 to 10000 | > 10000 |  |
| C[C@H]1CN(S(=O)(=O)c2ccc(F)cc2)c2cc(COc3c(F)cccc3Cl)ccc2O1 |  |  | EC50 [1, 4]: < 500 nM; EC50 [2, 5]: 5000 to 10000 nM |
| O=C(O)CC[C@H]1CN(S(=O)(=O)c2cccc(OC(F)F)c2)c2cc(/C=C/c3ccccc3C(F)(F)F)ccc2O1 [Example 89AO, (S,E)-3-(4-((3-(difluoromethoxy)phenyl)sulfonyl)-6-(2-(trifluoromethyl)styryl)-3,4-dihydro-2H-benzo[b][1,4]oxazin-2-yl)propanoic acid] | < 500 | 500 to 5000 |  |
| O=S(=O)(c1cccc(C(F)(F)F)c1)N1C[C@H](O)Cc2ccc(OCc3c(F)cccc3Cl)cc21 [Example 155, (R)-7-((2-Chloro-6-fluorobenzyl)oxy)-1-((3-(trifluoromethyl)phenyl)sulfonyl)-1,2,3,4-tetrahydroquinolin-3-ol] |  |  | EC50 ([1]; RORγ-LBD TR-FRET assay): < 500 nM; TR-FRET Assay Max Response ([1]; RORγ-LBD TR-FRET assay): ** (a value in the range of greater than 90 to 150); EC50 [2, 6]: < 500 nM; Gal4-RORγ Assay Max Response [2, 6]: ** (a value in the range of greater than 90 to 150) |
| CCOc1nn(CC)cc1S(=O)(=O)N1C[C@H](CCC(=O)OC)Oc2ccc(/C=C/c3ccccc3SC)cc21 [Example 89AV, (S,E)-methyl 3-(4-((3-ethoxy-1-ethyl-1H-pyrazol-4-yl)sulfonyl)-6-(2-(methylthio)styryl)-3,4-dihydro-2H-benzo[b][1,4]oxazin-2-yl)propanoate] | < 500 | < 500 |  |
| O=C(O)CC[C@H]1CN(S(=O)(=O)c2cccc(C(F)(F)F)c2)c2cc(C3=CCCCC3)ccc2O1 [Example 193, (S)-3-(6-(cyclohex-1-en-1-yl)-4-((3-(trifluoromethyl)phenyl)sulfonyl)-3,4-dihydro-2H-benzo[b][1,4]oxazin-2-yl)propanoic acid] |  |  | EC50 [1, 4]: < 500 nM; EC50 [2, 5]: < 500 nM |
| C[C@H]1CN(S(=O)(=O)c2cccc(C(F)(F)F)c2)c2cc(COc3c(F)cccc3Cl)ccc2O1 |  |  | EC50 [1, 4]: < 500 nM; EC50 [2, 5]: 5000 to 10000 nM |
| COc1cc(S(=O)(=O)N2C[C@H](CCC(C)(C)O)Oc3ccc(/C=C(\C)c4c(F)cccc4Cl)cc32)ccc1F [Example 120, (S,E)-4-(6-(2-(2-Chloro-6-fluorophenyl)prop-1-en-1-yl)-4-((4-fluoro-3-methoxyphenyl)sulfonyl)-3,4-dihydro-2H-benzo[b][1,4]oxazin-2-yl)-2-methylbutan-2-ol] |  |  | EC50 ([1]; RORγ-LBD TR-FRET assay): < 500 nM; TR-FRET Assay Max Response ([1]; RORγ-LBD TR-FRET assay): *** (a value in the range of greater than 150 to 200); EC50 [2, 6]: < 500 nM; Gal4-RORγ Assay Max Response [2, 6]: ** (a value in the range of greater than 90 to 150) |
| CC(C)Oc1ncc(C(F)(F)F)cc1S(=O)(=O)N1C[C@H](CCC(=O)O)Oc2ccc(/C=C/c3c(F)cccc3Cl)cc21 [Example 89FK, (S,E)-3-(6-(2-chloro-6-fluorostyryl)-4-((2-isopropoxy-5-(trifluoromethyl)pyridin-3-yl)sulfonyl)-3,4-dihydro-2H-benzo[b][1,4]oxazin-2-yl)propanoic acid] | < 500 | > 10000 |  |
| O=C(O)CC[C@H]1CN(S(=O)(=O)c2cc(C(F)(F)F)cnc2OCCCO)c2cc(/C=C/c3c(F)cccc3Cl)ccc2O1 [Example 89FC, (S,E)-3-(6-(2-chloro-6-fluorostyryl)-4-((2-(3-hydroxypropoxy)-5-(trifluoromethyl)pyridin-3-yl)sulfonyl)-3,4-dihydro-2H-benzo[b][1,4]-oxazin-2-yl)propanoic acid] | < 500 | 500 to 5000 |  |
| COC(=O)CC[C@H]1CN(S(=O)(=O)c2cccc(OC(F)F)c2)c2c(ccc(/C=C(\C)c3c(F)cccc3Cl)c2F)O1 [Example 63, Methyl (S,E)-3-(6-(2-(2-chloro-6-fluorophenyl)prop-1-en-1-yl)-4-((3-(difluoromethoxy)phenyl)sulfonyl)-5-fluoro-3,4-dihydro-2H-benzo[b][1,4]oxazin-2-yl)propanoate] | < 500 | 500 to 5000 |  |
| C/C(=C\c1ccc2c(c1)N(S(=O)(=O)c1cccc(C(F)(F)F)c1)C[C@H](CCC(=O)N1CC3(COC3)C1)O2)c1c(F)cccc1Cl [Example 127D, (S,E)-3-(6-(2-(2-chloro-6-fluorophenyl)prop-1-en-1-yl)-4-((3-(trifluoro-methyl)phenyl)sulfonyl)-3,4-dihydro-2H-benzo[b][1,4]oxazin-2-yl)-1-(2-oxa-6-azaspiro[3.3]heptan-6-yl)propan-1-one] |  |  | EC50 ([1]; RORγ-LBD TR-FRET assay): < 500 nM; TR-FRET Assay Max Response ([1]; RORγ-LBD TR-FRET assay): **** (a value greater than 200); EC50 [2, 6]: < 500 nM; Gal4-RORγ Assay Max Response [2, 6]: ** (a value in the range of greater than 90 to 150) |
| C/C(=C\c1ccc2c(c1)N(S(=O)(=O)c1cccc(C(F)(F)F)c1)C[C@H](CCC(=O)O)O2)c1c(C)noc1C [Example 86AC, (S,E)-3-(6-(2-(3,5-dimethylisoxazol-4-yl)prop-1-en-1-yl)-4-((3-(trifluoromethyl)phenyl)sulfonyl)-3,4-dihydro-2H-benzo[b][1,4]oxazin-2-yl)propanoic acid] | < 500 | > 10000 |  |
| CCOc1ncc(C(F)(F)F)cc1S(=O)(=O)N1C[C@H](CCC(=O)O)Oc2ccc(/C=C/c3c(Cl)cccc3OC)cc21 [Example 89FA, (S,E)-3-(6-(2-chloro-6-methoxystyryl)-4-((2-ethoxy-5-(trifluoromethyl)pyridin-3-yl)sulfonyl)-3,4-dihydro-2H-benzo[b][1,4]oxazin-2-yl)propanoic acid] | < 500 | < 500 |  |
| O=C(O)CC[C@H]1CN(S(=O)(=O)c2cccc(C(F)F)c2)c2cc(/C=C/c3c(Cl)cccc3C(F)(F)F)ccc2O1 [Example 82, (S,E)-3-(6-(2-Chloro-6-(trifluoromethyl)styryl)-4-((3-(difluoromethyl)phenyl)sulfonyl)-3,4-dihydro-2H-benzo[b][1,4]oxazin-2-yl)propanoic acid] | < 500 | < 500 |  |
| COc1cc(S(=O)(=O)N2c3cc(OCc4c(F)cccc4Cl)ccc3C=C(CN)[C@H]2C)ccc1F [Example 139, (R)-(7-((2-Chloro-6-fluorobenzyl)oxy)-1-((4-fluoro-3-methoxyphenyl)sulfonyl)-2-methyl-1,2-dihydroquinolin-3-yl)methanamine] |  |  | EC50 ([1]; RORγ-LBD TR-FRET assay): < 500 nM; EC50 [2, 6]: 500 to 5000 nM |
| COC(=O)CC[C@H]1CN(S(=O)(=O)c2cc(Cl)cnc2OCCO)c2cc(/C=C(\C)c3c(F)cccc3Cl)ccc2O1 [Example 69, Methyl (S,E)-3-(4-((5-chloro-2-(2-hydroxyethoxy)pyridin-3-yl)sulfonyl)-6-(2-(2-chloro-6-fluorophenyl)prop-1-en-1-yl)-3,4-dihydro-2H-benzo[b][1,4]oxazin-2-yl)propanoate] | < 500 | > 10000 |  |
| O=C(O)CC[C@H]1CN(S(=O)(=O)c2cccc(C(F)(F)F)c2)c2cc(/C=C3\CCCc4ccccc43)ccc2O1 [Example 37, (S,E)-3-(6-((3,4-Dihydronaphthalen-1(2H)-ylidene)methyl)-4-((3-(trifluoromethyl)phenyl)sulfonyl)-3,4-dihydro-2H-benzo[b][1,4]oxazin-2-yl)propanoic acid] | < 500 | < 500 |  |
| CCOc1ncc(Cl)cc1S(=O)(=O)N1C[C@H](CCC(=O)O)Oc2ccc(/C=C(\C)c3c(F)cccc3Cl)cc21 [Example 68, (S,E)-3-(4-((5-Chloro-2-ethoxypyridin-3-yl)sulfonyl)-6-(2-(2-chloro-6-fluorophenyl)prop-1-en-1-yl)-3,4-dihydro-2H-benzo[b][1,4]oxazin-2-yl)propanoic acid] | < 500 | 500 to 5000 |  |
| CCOc1nn(CC)cc1S(=O)(=O)N1C[C@H](CCC(=O)O)Oc2ccc(/C=C/c3c(C)cccc3F)cc21 [Example 89AG, (S,E)-3-(4-((3-ethoxy-1-ethyl-1H-pyrazol-4-yl)sulfonyl)-6-(2-fluoro-6-methylstyryl)-3,4-dihydro-2H-benzo[b][1,4]-oxazin-2-yl)propanoic acid] | < 500 | < 500 |  |
| CCOc1nn(CC)cc1S(=O)(=O)N1C[C@H](CCC(=O)O)Oc2ccc(/C=C/c3ccccc3Cl)cc21 [Example 89BC, (S,E)-3-(6-(2-chlorostyryl)-4-((3-ethoxy-1-ethyl-1H-pyrazol-4-yl)sulfonyl)-3,4-dihydro-2H-benzo[b][1,4]oxazin-2-yl)propanoic acid] | < 500 | 500 to 5000 |  |
| C/C(=C\c1ccc2c(c1C)N(S(=O)(=O)c1cccc(OC(F)F)c1)C[C@H](CCC(=O)O)O2)c1c(F)cccc1Cl [Example 60, (S,E)-3-(6-(2-(2-Chloro-6-fluorophenyl)prop-1-en-1-yl)-4-((3-(difluoromethoxy)phenyl)sulfonyl)-5-methyl-3,4-dihydro-2H-benzo[b][1,4]oxazin-2-yl)propanoic acid] | < 500 | 500 to 5000 |  |

Source: US9896441B2 (Lycera Corporation, priority 2014, dated 2018)
